Results from US20240409585A1, “MACROCYCLIC IMMUNOMODULATORS” (priority 2021, published 2024).
Bridge positions count the residues as written; N and C are the ends. Square brackets hold non-standard residues; d marks the D form. Peptide text beside a SMILES is read from it. * marks the point of attachment. Tyr(3-NO2) = N[C@@H](Cc1ccc(O)c([N+](=O)[O-])c1)C(=O)O; Phe(4-COOH) = N[C@@H](Cc1ccc(C(=O)O)cc1)C(=O)O; Bip = N[C@@H](Cc1ccc(-c2ccccc2)cc1)C(=O)O; hArg = N=C(N)NCCCC[C@H](N)C(=O)O; 2Pal = N[C@@H](Cc1ccccn1)C(=O)O; 3Pal = N[C@@H](Cc1cccnc1)C(=O)O; 4Pal = N[C@@H](Cc1ccncc1)C(=O)O; Cit = NC(=O)NCCC[C@H](N)C(=O)O; Carboxymethyl = O=C(O)C*; NMeA = CN[C@@H](C)C(=O)O; Orn = NCCC[C@H](N)C(=O)O; Dab = NCC[C@H](N)C(=O)O; Dap = NC[C@H](N)C(=O)O

What follows are molecules tested against T1, PE-labeled human PD-L1-Ig binding to Jurkat cell line over-expressing human PD-1 (Jurkat-PD-1) (Homo sapiens, UniProt Q15116) (assay: Jurkat-PD-1 Cell Binding High-Content Screening Assay (CBA): Method 1). Details: Jurkat-hPD-1 cells, PE-labeled PD-L1-Ig 20 nM final; read-out: Jurkat HPDL1 PD1 IC50 (uM) (Method 1).
T1 construct: expressed in transfected cells; host or cells: Jurkat
T1 sequence (Q15116 25-288): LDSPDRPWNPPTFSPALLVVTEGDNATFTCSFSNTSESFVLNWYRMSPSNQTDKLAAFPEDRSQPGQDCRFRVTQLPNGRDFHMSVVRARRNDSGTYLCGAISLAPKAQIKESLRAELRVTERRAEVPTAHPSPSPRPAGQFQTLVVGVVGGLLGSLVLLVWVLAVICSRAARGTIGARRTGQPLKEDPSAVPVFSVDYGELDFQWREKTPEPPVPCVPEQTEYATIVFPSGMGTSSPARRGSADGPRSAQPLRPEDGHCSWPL

| Compound | IC50 [µM] |
| --- | --- |
| CC(C)C[C@@H]1NC(=O)[C@H](CCN)NC(=O)[C@@H](CC(C)C)NC(=O)[C@H](C)N(C)C(=O)[C@H](CCCNC(N)=O)NC(=O)[C@H](Cc2ccc(-c3ccccc3)cc2)NC(=O)[C@H](C(C)C)NC(=O)[C@H](Cc2c[nH]c3ccccc23)NC(=O)[C@H](CC(=O)O)NC(=O)[C@H](Cc2ccc(C(=O)O)cc2)NC(=O)[C@H](Cc2ccccn2)NC(=O)CSC[C@@H](C(=O)N[C@@H](C)C(N)=O)NC(=O)[C@H]([C@@H](C)O)NC(=O)[C@H](C(C)C)NC1=O [Compound 1330] ({CH2CO}-[2Pal][Phe(4-COOH)]DWV[Bip][Cit][NMeA][dL][Dab]LVTCA-NH2; thioether N-14) | 0.04 |
| CC(C)C[C@@H]1NC(=O)[C@H](CCN)NC(=O)[C@@H](CC(C)C)NC(=O)[C@H](C)N(C)C(=O)[C@H](CCCNC(N)=O)NC(=O)[C@H](Cc2ccc(-c3ccccc3)cc2)NC(=O)[C@H](C(C)C)NC(=O)[C@H](Cc2c[nH]c3ccccc23)NC(=O)[C@H](CC(=O)O)NC(=O)[C@H](Cc2ccc(C(=O)O)cc2)NC(=O)[C@H](Cc2cccnc2)NC(=O)CSC[C@@H](C(=O)N[C@@H](C)C(N)=O)NC(=O)[C@H]([C@@H](C)O)NC(=O)[C@H](C(C)C)NC1=O [Compound 1332] ({CH2CO}-[3Pal][Phe(4-COOH)]DWV[Bip][Cit][NMeA][dL][Dab]LVTCA-NH2; thioether N-14) | 0.03 |
| CC(C)C[C@@H]1NC(=O)[C@H](CCN)NC(=O)[C@@H](CC(C)C)NC(=O)[C@H](C)N(C)C(=O)[C@H](CCCNC(N)=O)NC(=O)[C@H](Cc2ccc(-c3ccccc3)cc2)NC(=O)[C@H](C(C)C)NC(=O)[C@H](Cc2c[nH]c3ccccc23)NC(=O)[C@H](CC(=O)O)NC(=O)[C@H](Cc2ccncc2)NC(=O)[C@H](Cc2cccnc2)NC(=O)CSC[C@@H](C(=O)N[C@@H](C)C(N)=O)NC(=O)[C@H]([C@@H](C)O)NC(=O)[C@H](C(C)C)NC1=O [Compound 1333] ({CH2CO}-[3Pal][4Pal]DWV[Bip][Cit][NMeA][dL][Dab]LVTCA-NH2; thioether N-14) | 0.02 |
| CC(C)C[C@@H]1NC(=O)[C@H](CCN)NC(=O)[C@@H](CC(C)C)NC(=O)[C@H](C)N(C)C(=O)[C@H](CCCNC(N)=O)NC(=O)[C@H](Cc2ccc(-c3ccccc3)cc2)NC(=O)[C@H](C(C)C)NC(=O)[C@H](Cc2c[nH]c3ccccc23)NC(=O)[C@H](CC(=O)O)NC(=O)[C@H](Cc2ccccn2)NC(=O)[C@H](Cc2cccnc2)NC(=O)CSC[C@@H](C(=O)N[C@@H](C)C(N)=O)NC(=O)[C@H]([C@@H](C)O)NC(=O)[C@H](C(C)C)NC1=O [Compound 1334] ({CH2CO}-[3Pal][2Pal]DWV[Bip][Cit][NMeA][dL][Dab]LVTCA-NH2; thioether N-14) | 0.63 |
| CC(C)C[C@@H]1NC(=O)[C@H](CCN)NC(=O)[C@@H](CC(C)C)NC(=O)[C@H](C)N(C)C(=O)[C@H](CCCNC(N)=O)NC(=O)[C@H](Cc2ccc(-c3ccccc3)cc2)NC(=O)[C@H](C(C)C)NC(=O)[C@H](Cc2c[nH]c3ccccc23)NC(=O)[C@H](CC(=O)O)NC(=O)[C@H](Cc2ccc(O)c([N+](=O)[O-])c2)NC(=O)[C@H](Cc2ccncc2)NC(=O)CSC[C@@H](C(=O)N[C@@H](C)C(N)=O)NC(=O)[C@H]([C@@H](C)O)NC(=O)[C@H](C(C)C)NC1=O [Compound 1336] ({CH2CO}-[4Pal][Tyr(3-NO2)]DWV[Bip][Cit][NMeA][dL][Dab]LVTCA-NH2; thioether N-14) | 0.01 |
| CC(C)C[C@@H]1NC(=O)[C@H](CCN)NC(=O)[C@@H](CC(C)C)NC(=O)[C@H](C)N(C)C(=O)[C@H](CCCNC(N)=O)NC(=O)[C@H](Cc2ccc(-c3ccccc3)cc2)NC(=O)[C@H](C(C)C)NC(=O)[C@H](Cc2c[nH]c3ccccc23)NC(=O)[C@H](CC(=O)O)NC(=O)[C@H](Cc2ccc(O)c([N+](=O)[O-])c2)NC(=O)[C@H](Cc2ccccn2)NC(=O)CSC[C@@H](C(=O)N[C@@H](C)C(N)=O)NC(=O)[C@H]([C@@H](C)O)NC(=O)[C@H](C(C)C)NC1=O [Compound 1337] ({CH2CO}-[2Pal][Tyr(3-NO2)]DWV[Bip][Cit][NMeA][dL][Dab]LVTCA-NH2; thioether N-14) | 0.28 |
| CC(C)C[C@@H]1NC(=O)[C@H](CCN)NC(=O)[C@@H](CC(C)C)NC(=O)[C@H](C)N(C)C(=O)[C@H](CCCNC(N)=O)NC(=O)[C@H](Cc2ccc(-c3ccccc3)cc2)NC(=O)[C@H](C(C)C)NC(=O)[C@H](Cc2c[nH]c3ccccc23)NC(=O)[C@H](CC(=O)O)NC(=O)[C@H](Cc2cccnc2)NC(=O)[C@H](Cc2cccnc2)NC(=O)CSC[C@@H](C(=O)N[C@@H](C)C(N)=O)NC(=O)[C@H]([C@@H](C)O)NC(=O)[C@H](C(C)C)NC1=O [Compound 1339] ({CH2CO}-[3Pal][3Pal]DWV[Bip][Cit][NMeA][dL][Dab]LVTCA-NH2; thioether N-14) | 0.05 |
| CC(C)C[C@@H]1NC(=O)[C@H](CCN)NC(=O)[C@@H](CC(C)C)NC(=O)[C@H](C)N(C)C(=O)[C@H](CCCNC(=N)N)NC(=O)[C@H](Cc2ccc(-c3ccccc3)cc2)NC(=O)[C@H](C(C)C)NC(=O)[C@H](Cc2c[nH]c3ccccc23)NC(=O)[C@H](CC(=O)O)NC(=O)[C@H](Cc2ccc(O)cc2)NC(=O)[C@H](CCCCNC(=N)N)NC(=O)CSC[C@@H](C(=O)N[C@@H](C)C(N)=O)NC(=O)[C@H]([C@@H](C)O)NC(=O)[C@H](C(C)C)NC1=O [Compound 1344] ({CH2CO}-[hArg]YDWV[Bip]R[NMeA][dL][Dab]LVTCA-NH2; thioether N-14) | 0.07 |
| CC(C)C[C@@H]1NC(=O)[C@H](CCN)NC(=O)[C@@H](CC(C)C)NC(=O)[C@H](C)N(C)C(=O)[C@H](CCCNC(N)=O)NC(=O)[C@H](Cc2ccc(-c3ccccc3)cc2)NC(=O)[C@H](C(C)C)NC(=O)[C@H](Cc2c[nH]c3ccccc23)NC(=O)[C@H](CC(=O)O)NC(=O)[C@H](Cc2ccc(O)cc2)NC(=O)[C@H](CCN)NC(=O)CSC[C@@H](C(=O)N[C@@H](C)C(N)=O)NC(=O)[C@H]([C@@H](C)O)NC(=O)[C@H](C(C)C)NC1=O [Compound 1346] ({CH2CO}-[Dab]YDWV[Bip][Cit][NMeA][dL][Dab]LVTCA-NH2; thioether N-14) | 0.07 |

More lines, now with the values ahead:

| IC50 [µM] | Compound |
| --- | --- |
| 0.01 | CC(C)C[C@@H]1NC(=O)[C@H](CCN)NC(=O)[C@@H](CC(C)C)NC(=O)[C@H](C)N(C)C(=O)[C@H](CCCNC(N)=O)NC(=O)[C@H](Cc2ccc(-c3ccccc3)cc2)NC(=O)[C@H](C(C)C)NC(=O)[C@H](Cc2c[nH]c3ccccc23)NC(=O)[C@H](CC(=O)O)NC(=O)[C@H](Cc2ccc(OCC(=O)O)cc2)NC(=O)[C@H](Cc2cccnc2)NC(=O)CSC[C@@H](C(=O)N[C@@H](C)C(N)=O)NC(=O)[C@H]([C@@H](C)O)NC(=O)[C@H](C(C)C)NC1=O [Compound 1331] ({CH2CO}-[3Pal]Y(Carboxymethyl)DWV[Bip][Cit][NMeA][dL][Dab]LVTCA-NH2; thioether N-14) |
| 0.01 | CC(C)C[C@@H]1NC(=O)[C@H](CCN)NC(=O)[C@@H](CC(C)C)NC(=O)[C@H](C)N(C)C(=O)[C@H](CCCNC(N)=O)NC(=O)[C@H](Cc2ccc(-c3ccccc3)cc2)NC(=O)[C@H](C(C)C)NC(=O)[C@H](Cc2c[nH]c3ccccc23)NC(=O)[C@H](CC(=O)O)NC(=O)[C@H](Cc2ccc(O)c([N+](=O)[O-])c2)NC(=O)[C@H](Cc2cccnc2)NC(=O)CSC[C@@H](C(=O)N[C@@H](C)C(N)=O)NC(=O)[C@H]([C@@H](C)O)NC(=O)[C@H](C(C)C)NC1=O [Compound 1338] ({CH2CO}-[3Pal][Tyr(3-NO2)]DWV[Bip][Cit][NMeA][dL][Dab]LVTCA-NH2; thioether N-14) |
| 0.02 | CC(C)C[C@@H]1NC(=O)[C@H](CCN)NC(=O)[C@@H](CC(C)C)NC(=O)[C@H](C)N(C)C(=O)[C@H](CCCNC(=N)N)NC(=O)[C@H](Cc2ccc(-c3ccccc3)cc2)NC(=O)[C@H](C(C)C)NC(=O)[C@H](Cc2c[nH]c3ccccc23)NC(=O)[C@H](CC(=O)O)NC(=O)[C@H](Cc2ccc(O)cc2)NC(=O)[C@H](CCN)NC(=O)CSC[C@@H](C(=O)N[C@@H](C)C(N)=O)NC(=O)[C@H]([C@@H](C)O)NC(=O)[C@H](C(C)C)NC1=O [Compound 1340] ({CH2CO}-[Dab]YDWV[Bip]R[NMeA][dL][Dab]LVTCA-NH2; thioether N-14) |
| 0.05 | CC(C)C[C@@H]1NC(=O)[C@H](CCN)NC(=O)[C@@H](CC(C)C)NC(=O)[C@H](C)N(C)C(=O)[C@H](CCCNC(=N)N)NC(=O)[C@H](Cc2ccc(-c3ccccc3)cc2)NC(=O)[C@H](C(C)C)NC(=O)[C@H](Cc2c[nH]c3ccccc23)NC(=O)[C@H](CC(=O)O)NC(=O)[C@H](Cc2ccc(O)cc2)NC(=O)[C@H](CCCN)NC(=O)CSC[C@@H](C(=O)N[C@@H](C)C(N)=O)NC(=O)[C@H]([C@@H](C)O)NC(=O)[C@H](C(C)C)NC1=O [Compound 1341] ({CH2CO}-[Orn]YDWV[Bip]R[NMeA][dL][Dab]LVTCA-NH2; thioether N-14) |
| 0.04 | CC(C)C[C@@H]1NC(=O)[C@H](CCN)NC(=O)[C@@H](CC(C)C)NC(=O)[C@H](C)N(C)C(=O)[C@H](CCCNC(=N)N)NC(=O)[C@H](Cc2ccc(-c3ccccc3)cc2)NC(=O)[C@H](C(C)C)NC(=O)[C@H](Cc2c[nH]c3ccccc23)NC(=O)[C@H](CC(=O)O)NC(=O)[C@H](Cc2ccc(O)cc2)NC(=O)[C@H](CCCNC(=N)N)NC(=O)CSC[C@@H](C(=O)N[C@@H](C)C(N)=O)NC(=O)[C@H]([C@@H](C)O)NC(=O)[C@H](C(C)C)NC1=O [Compound 1343] ({CH2CO}-RYDWV[Bip]R[NMeA][dL][Dab]LVTCA-NH2; thioether N-14) |
| 0.01 | CC(C)C[C@@H]1NC(=O)[C@H](CCN)NC(=O)[C@@H](CC(C)C)NC(=O)[C@H](C)N(C)C(=O)[C@H](CCCNC(N)=O)NC(=O)[C@H](Cc2ccc(-c3ccccc3)cc2)NC(=O)[C@H](C(C)C)NC(=O)[C@H](Cc2c[nH]c3ccccc23)NC(=O)[C@H](CC(=O)O)NC(=O)[C@H](Cc2ccc(O)cc2)NC(=O)[C@H](CN)NC(=O)CSC[C@@H](C(=O)N[C@@H](C)C(N)=O)NC(=O)[C@H]([C@@H](C)O)NC(=O)[C@H](C(C)C)NC1=O [Compound 1345] ({CH2CO}-[Dap]YDWV[Bip][Cit][NMeA][dL][Dab]LVTCA-NH2; thioether N-14) |
